Like-named read-outs stand apart in the source and are kept apart here. Residues, ends and D or L forms follow the SMILES beside them.
What was measured:
[1] = test system: osteosarcoma cell line MG-63; settings: cited from earlier work
Description: In this study, the response of cells to B7-005 varied according to the cell type. The tumoral MEC-1 cells were the most sensitive to the cytotoxic effects of the peptide, displaying even higher sensitivity to B7-005 than observed in a previous study. However, we note that in the previous study, the peptides were generated by SPOT synthesis and therefore were of lower-grade purification, which likely explains the differences observed with our study. […] These cells were the only non-immortalized or tumor ...

HaCaT cells = test: Cell viability MTT, HaCaT; format: cell-based, human; settings: 24 h, DMEM, n ≥ 9
Procedure: (§1) Chronic lymphocytic leukaemia-derived MEC-1 cells were cultured in suspension using complete RPMI (EuroClone), supplemented with 100 U ml^−1 penicillin (Sigma), 100 μg ml^−1 streptomycin (Sigma), 2 mM L-glutamine and 10% (v/v) foetal bovine serum (FBS, EuroClone). A549 human lung carcinoma epithelial cells and immortalized human keratinocytes (HaCaT) were grown in adhesion in complete high glucose Dulbecco’s MEM (DMEM, EuroClone) supplemented with 100 U ml^−1 penicillin (Sigma), […] streptomycin (Sigma), 2 mM L-glutamine and 10% (v/v) of FBS. […] All cell lines were counted in a Bürker chamber and diluted to the desired working concentrations.
(§2) Cell viability was evaluated by tetrazolium salt (MTT, or MTS for HUVECs only) tests. […] The next day, absorbance was measured at 570 nm using a Nanoquant Infinite-M200Pro plate reader (Tecan, Switzerland).
(§3) HUVECs, 7500 cells per well, were seeded in HESFM with 10% FBS in a 96-well flat-bottomed microtitre plate (EuroClone SpA, Italy). […] The plate was then incubated for 2 h at 37°C in a humidified 5% CO2 atmosphere, and the absorbance was measured at 490 nm, using a spectrophotometer (PowerWaveX, Bio-Tek Instruments). The cytotoxicity was calculated by comparing the absorbance of peptide-treated samples with that of the untreated control and expressed in percentage of vitality. […]

MEC-1 cells = test: Cell viability MTT, MEC-1; format: cell-based, human; settings: MEC-1, 24 h, RPMI, n ≥ 9
Procedure: as §1, §2, §3

HUVECs = test: Cell viability MTS, HUVEC; format: cell-based, human; settings: 24 h
Procedure: as §1, §2, §3

[2] = ref [20]; cited from earlier work
Description: The bioavailability in human serum of a peptide intended for clinical systemic use is a critical parameter for the success of peptide-based drugs. […] However, irreversible sequestration of the peptide by serum proteins at higher serum concentrations could also impair its antimicrobial activity. To check if the peptide maintained its availability under conditions closer to the clinical o ...

CC[C@H](C)[C@H](NC(=O)[C@H](CCCNC(=N)N)NC(=O)[C@@H](N)Cc1c[nH]c2ccccc12)C(=O)N[C@@H](CCCNC(=N)N)C(=O)N[C@@H](CCCNC(=N)N)C(=O)N[C@@H](CCCNC(=N)N)C(=O)N[C@@H](Cc1c[nH]c2ccccc12)C(=O)N1CCC[C@H]1C(=O)N[C@@H](CCCNC(=N)N)C(=O)N[C@@H](CC(C)C)C(=O)N1CCC[C@H]1C(=O)N[C@@H](CCCNC(=N)N)C(=O)N1CCC[C@H]1C(=O)N[C@@H](CCCNC(=N)N)C(=O)N[C@@H](Cc1c[nH]c2ccccc12)C(=O)N[C@@H](CCCNC(=N)N)C(=O)O [B7-005] (H-WRIRRRWPRLPRPRWR-OH)
concentration up to which MG-63 cells remained unaffected ([1]; equivalent of 128 µg ml^−1, ref [35]): ≥ 54 µM
concentration up to which MG-63 cells remained unaffected ([1]; ref [35]): ≥ 128 µg/mL
IC50 (HaCaT cells): < 128 µM
IC50 (MEC-1 cells): ~48 µM
concentration up to which there were no detectable effects (HUVECs): ≥ 128 µM
IC50 (HUVECs; MTS, HESFM + 10% FBS, n ≥ 9): ~256 µM
proteolytic degradation by serum proteases [2]: excluded rapid proteolytic degradation
